The text below walks through data of patent US9399635B2, “Pyrazole derivative” (GREEN TECH CO., LTD., priority 2011, dated 2016).

Data set [1] deals with recombinant three-repeat microtubule-binding domain (3R-MBD) of tau protein (Homo sapiens, UniProt P10636). The data set can be described thus: Determination of tau aggregation inhibitory activity (heparin-induced, thioflavin T fluorescence; electron microscope). In kind it is biochemical. On the procedure: Pharmacological Test Example 1: Determination of Tau Aggregation Inhibitory Activity
A recombinant three-repeat microtubule-binding domain (3R-MBD) of tau protein was expressed in E. coli and was purified and used for the experiment. The purified tau solution was diluted with a 50 mM Tris-HCl buffer (pH 7.6) to a final concentration of 10 μM. The test compounds were prepared using dimethylsulfoxide (DMSO) at 20-fold of their final concentrations and added to the plate so that the DMSO concentration would be 5%. Heparin was added to the plate so that the final concentration would be 10 μM and the plate was left to stand at 37° C. for 16 hours. Thioflavin T was added to the plate so that the concentration would be 10 μM and the fluorescence intensity was measured with a fluorescence plate reader (PerkinElmer, Inc.) (excitation wavelength: 440 nm; emission wavelength: 480 nm).
The final concentration of each compound at the time of measurement was set at 0.1, 0.3, 1, 3, and 10 μM. The sample to which only DMSO was added was used as a negative control and its fluorescence intensity was taken as 0% inhibitory activity.
The samples were placed on a grid and washed with distilled water. A 1 mM phosphotungstic acid aqueous solution was added to the samples. The samples were washed, dried overnight, and observed.

The target of data set [2] is T1, recombinant human β-secretase (Homo sapiens, UniProt P56817).
T1 construct: purchased Invitrogen
The data set can be described thus: Determination of β-secretase inhibitory activity (BACE-1 FRET assay Kit). The settings on record: recombinant human β-secretase, fluorescent substrate peptide, 1 hour; read-out: IC50 (μM) Test example 2 (β-secretase inhibitory activity). In kind it is biochemical. The procedure:
Pharmacological Test Example 2: Determination of β-Secretase Inhibitory Activity
The β-secretase inhibitory activity was measured with BACE-1 FRET assay Kit (Invitrogen). The test compounds were prepared using DMSO at 30-fold of their final concentrations and dissolved so that the DMSO concentration would be 10%. To each of the solutions, an equal volume of a recombinant human β-secretase (1 U/mL) dissolved in the assay buffer and an equal volume of fluorescent substrate peptide (2.5 nM) were added and the solutions were left to stand for 1 hour. The fluorescence intensity was measured with a fluorescence plate reader (excitation wavelength: 545 nm; emission wavelength: 590 nm).
The final concentration of each compound at the time of measurement was set at 0.1, 0.3, 1, 3, and 10 μM, at 0.3, 1, 3, 10, and 30 μM, or at 1, 3, 10, 30, and 100 μM.

Data set [3] is described as follows: Evaluation of in vivo pharmacokinetics (blood and brain concentrations, LC-MS/MS). The settings on record: SD rats. The procedure:
Pharmacological test example 4: Evaluation of in vivo pharmacokinetics
To SD rats (male, 7 weeks old), the test compound was orally administered (p. o.) at an amount of 50 mg/kg bw or intravenously administered (i.v.) at an amount of 1 mg/kg bw and the concentrations in the blood and brain were measured up to 3 hours. The administration vehicle was an 80% PEG 400 aqueous solution. The blood was collected under isoflurane inhalational anesthesia and the brain was harvested after the rats were sacrificed. The plasma was separated from the blood. The brain was homogenized after addition of a three-fold volume of PBS and then methanol was added thereto. Thus the prepared test samples were subjected to measurement. The measurement was performed by LC-MS/MS (Applied Biosystems and Waters).
The blood concentration changes of the compounds of Example 2 and Example 2 (2) ((1E,6E)-1-(1H-indol-6-yl)-7-[2-methoxy-4-(2-pyridylmethoxy)phenyl]hepta-1,6-diene-3,5-dione) after oral administration (p.o.) thereof are shown in FIG. 2. The brain concentration changes of the compounds after intravenous administration (i.v.) and oral administration (p.o.) thereof are shown in Table 2.

In data set [4] the test system is sarcosyl-insoluble tau in the brain of tau N279K Tg mice. Put plainly: Tau aggregation inhibitory activity in mice with oral administration (brain sarcosyl-insoluble tau ELISA). The format is in vivo. The settings on record: oral 10, 20, or 40 mg/kg bw/day, four weeks (FIG. 4). The procedure:
Pharmacological test example 6: Determination of tau aggregation inhibitory activity in mice with oral administration
To tau N279K Tg mice (male, 8 months old, n=8), the compound of Example 2 was orally administered and the tau concentration in the brain was measured. The administration vehicle was an 80% PEG 400 aqueous solution. The dose volume was 10 mL/kg bw/day and the dose was adjusted to be 10, 20, or 40 mg/kg bw/day. To Vehicle group, 10 mL/kg bw/day of an 80% PEG 400 aqueous solution was administered. To Positive control compound group, methylene blue (MB) adjusted to be 40 mg/kg bw/day was administered. Administration was performed with an oral feeding tube (Fuchigami Kikai Company) by gavage and continued for four weeks. After termination of the administration, the mice were sacrificed under pentobarbital anesthesia and the brain was harvested. The brain was homogenized after addition of a 5-fold volume of a high salt buffer (0.8 M NaCl, 1 mM EGTA, 10 mM Tris-HCl, 10% sucrose). […] An amount of 100 μL of a reaction stop solution was added to stop the chromogenic reaction and the absorbance was measured at 450 nm with a microplate reader. The tau concentration was determined from the standard curve produced from the measured values of the standard curve dilution series.
Background: ELISA stands for enzyme-linked immunosorbent assay.

SMILES strings stand for the structures. Like-named read-outs stand apart in the source and are kept apart here.

Sequence of recombinant three-repeat microtubule-binding domain (3R-MBD) of tau protein (P10636 186-279 isoform P10636-2 limits assumed): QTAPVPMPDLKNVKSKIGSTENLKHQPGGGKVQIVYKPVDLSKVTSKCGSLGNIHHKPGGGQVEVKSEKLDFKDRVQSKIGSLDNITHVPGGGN
T1 sequence (P56817 46-501): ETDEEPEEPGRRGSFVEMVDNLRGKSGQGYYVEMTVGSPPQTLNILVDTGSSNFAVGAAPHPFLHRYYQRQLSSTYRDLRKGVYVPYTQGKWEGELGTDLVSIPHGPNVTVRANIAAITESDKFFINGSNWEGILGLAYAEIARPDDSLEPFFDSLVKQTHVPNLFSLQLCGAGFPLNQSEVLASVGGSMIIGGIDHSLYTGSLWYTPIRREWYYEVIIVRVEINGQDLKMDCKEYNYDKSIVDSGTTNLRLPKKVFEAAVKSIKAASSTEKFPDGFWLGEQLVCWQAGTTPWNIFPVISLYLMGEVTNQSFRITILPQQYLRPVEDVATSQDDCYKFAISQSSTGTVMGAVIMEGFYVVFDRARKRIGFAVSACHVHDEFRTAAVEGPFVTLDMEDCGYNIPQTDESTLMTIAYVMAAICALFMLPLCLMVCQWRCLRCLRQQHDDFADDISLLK

As usually defined, the IC50 is the concentration that inhibits the measured activity by half. Turning to `COc1cc(OCc2ccccn2)ccc1/C=C/c1cc(/C=C/c2ccc3cc[nH]c3c2)[nH]n1` [Example 2, 3-[(1E)-2-(1H-indol-6-yl)ethenyl]-5-[(1E)-2-[2-methoxy-4-(2-pyridylmethoxy)phenyl]ethenyl]-1H-pyrazole], in data set [1] (0.1 μM and 1 μM, compared with DMSO only (FIG. 1)), the “tau aggregate formation observed with an electron microscope” value is recorded as “less tau aggregate formation”. Further, the IC50 in data set [1] (3R-MBD tau 10 μM, heparin 10 μM, 37° C. for 16 hours, thioflavin T, read-out: IC50 (μM) Test example 1 (tau aggregation inhibitory activity)) amounted to 0.92 µM; in data set [2], 3 µM. In addition, the “blood and brain concentrations compared with the compound of Example 2 (2)” value in data set [3] (p.o. 50 mg/kg bw or i.v. 1 mg/kg bw (FIG. 2, Table 2)) was “higher blood and brain concentrations”. Also, in data set [3] (male, rat, intravenous 1 mg/kg bw, 5 min, brain, read-out: brain concentration i.v. 5 min), the concentration at 5 min was determined as 48.7 ng/mL. Besides, the concentration at 180 min in data set [3] (male, rat, intravenous 1 mg/kg bw, brain, read-out: brain concentration i.v. 180 min) is 17.5 ng/mL; in data set [3] (male, rat, oral 50 mg/kg bw, brain, read-out: brain concentration p.o. 180 min), 68.9 ± 39.4 ng/mL. Further, in data set [3] (male, rat, oral 50 mg/kg bw, 60 min, brain, read-out: brain concentration p.o. 60 min), the concentration at 60 min is 8.54 ± 2.93 ng/mL. Further, the “amount of the sarcosyl-insoluble tau in the brain” value in data set [4] is “decreased in a dose-dependent manner”.
